Assays:
GLP-1 Receptor [1] = target: T1, GLP-1 Receptor (Homo sapiens, UniProt P43220); experiment: GLP-1R agonist cAMP stimulation assay, Method 2 (HDB HEK293/GLP1R/CRE-LUC, Cisbio cAMP dynamic 2 kit); format: cell-based; conditions: HEK293/GLP1R/CRE-LUC cells (HD Biosciences); 30 min at 37° C.; 0.5 mM IBMX, 0.1% BSA; geometric mean where n>=2; read-out: GLP1R cAMP Stimulation DR: EC50 (nM) Method 2 (HDB)
Method: Method 2: Activation of GLP-1 receptor is known to stimulate cyclic AMP (cAMP) production in cells which indicates primary coupling to the Gas subunit of the G protein heterotrimeric complex.
To optimize functional activity directed toward Gas coupling, a HEK293/CRE-Luc cell line developed by HDB stably expressing the GLP-1 Receptor was used. 200× concentration of compound working solutions were prepared (Agilent Technologies Bravo) with ½log serial dilution in 384-well Echo LDV plate (Labcyte, Cat# LP-0200). […] Seal the plate and incubate at 37° C. with 5% CO2 for 30 min.
After incubation the cAMP assay signal was generated using cAMP dynamic 2 Kit (Cisbio). 5 µL cAMP-d2 working solution was added to each well, followed with 5 µL Anti-cAMP antibody-cryptate working solution added to each well using ThermoFisher Multidrop Combi. Incubate at room temperature for 1 hour protected from light.
(§1) %Activity = 100% x (mean RLU of test sample - mean RLU of vehicle control) / (mean RLU of MAX control - mean RLU of vehicle control))
(§2) This is done to account for the lognormal distribution of multiple estimates of EC50 values. In practice geometric mean is calculated by first generating log values of EC50, averaging replicates and then calculating the antilog of the average.

GLP-1 Receptor [2] = target: T1, GLP-1 Receptor; experiment: GLP-1R agonist cAMP stimulation assay, Method 1 (DiscoverX CHO-K1, enzyme fragment complementation); format: cell-based; conditions: CHO-K1 cell line (DiscoverX) stably expressing GLP-1 Receptor; incubation 30 or 60 min at 37° C.; geometric mean where n>=2; read-out: GLP1R cAMP Stimulation DR: EC50 (nM) Method 1
Method: Activation of GLP-1 receptor is known to stimulate cyclic AMP (cAMP) production in cells which indicates primary coupling to the Gas subunit of the G protein heterotrimeric complex.
Method 1: To optimize functional activity directed toward Gas coupling, a CHO—K1 cell line developed by DiscoverX stably expressing the GLP-1 Receptor was used. Cells expressing GLP-1 receptor were plated in a 384-well microtiter plates and incubated overnight at 37° C. with 5% CO2 to allow the cells to attach and grow. Media was then aspirated from the cells and replaced with 15 uL 2:1 Hanks Balanced Salt Solution (HBSS)/10mM Hepes : cAMP XS+ Ab reagent. Five microliters (5 uL) of previously generated compound sample stocks at 4x final concentration in assay buffer were then added to the cells and allowed to incubate at 37° C. for 30 or 60 minutes.
After incubation the assay signal was generated using enzyme fragment complementation (EFC). In EFC, the enzyme B-galactosidase is split into two complementary portions (EA and ED). The fragment ED is fused to cAMP and in the assay format competes with endogenous cAMP for binding to a cAMP specific antibody. Activated β—Gal is formed when exogenous EA fragment binds to free ED-cAMP (not bound to cAMP specific antibody). Activated enzyme levels are detected through conversion of β-gal chemiluminescent substrate which generates a detectable luminescence signal and read on standard microtiter plate.
The methodology for detection of cAMP using EFC requires incubation with 20uL of cAMP XS+ ED/CL lysis cocktail for one hour followed by incubation with 20 uL cAMP XS+ EA reagent for three hours at room temperature. Microplates were read following signal generation with a PerkinElmer Envision instrument utilizing chemiluminescent signal detection. Compound activity was analyzed using CBIS data analysis suite (ChemInnovation, CA). Percentage activity was calculated using the following formula:
as §1, §2

T1 sequence (P43220 24-463): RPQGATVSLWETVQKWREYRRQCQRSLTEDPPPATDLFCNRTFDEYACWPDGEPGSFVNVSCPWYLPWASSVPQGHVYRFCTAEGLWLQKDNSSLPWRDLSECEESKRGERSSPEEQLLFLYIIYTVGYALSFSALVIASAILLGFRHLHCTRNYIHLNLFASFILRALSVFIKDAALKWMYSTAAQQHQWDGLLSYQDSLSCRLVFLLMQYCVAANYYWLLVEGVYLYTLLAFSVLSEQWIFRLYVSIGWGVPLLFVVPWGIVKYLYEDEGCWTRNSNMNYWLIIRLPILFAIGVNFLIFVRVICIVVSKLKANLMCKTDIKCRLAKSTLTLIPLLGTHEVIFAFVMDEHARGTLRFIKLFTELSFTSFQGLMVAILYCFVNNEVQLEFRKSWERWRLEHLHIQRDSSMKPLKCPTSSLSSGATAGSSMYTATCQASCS

EC50 (GLP-1 Receptor [1]) [nM]	EC50 (GLP-1 Receptor [2]) [nM]	SMILES
0.089	0.12	N#Cc1ccc(COc2nccc(C3=CCC(Cc4nc5ccc(C(=O)O)nc5n4C[C@@H]4CCO4)CC3)n2)c(F)c1 (stereo partly drawn) [Compound 105a, 2-((4-(2-((4-cyano-2-fluorobenzyl)oxy)pyrimidin-4-yl)cyclohex-3-en-1-yl)methyl)-3-(((S)-oxetan-2-yl)methyl)-3H-imidazo[4,5-b]pyridine-5-carboxylic acid]
7.1	11	Cc1c(-c2cccc(OCc3ccc(Cl)cc3F)n2)ccn(Cc2nc3ccc(C(=O)O)nc3n2C[C@@H]2CCO2)c1=O [Compound 105aw, (S)-2-((6-((4-chloro-2-fluorobenzyl)oxy)-3′-methyl-2′-oxo-[2,4′-bipyridin]-1′(2′H)-yl)methyl)-3-(oxetan-2-ylmethyl)-3H-imidazo[4,5-b]pyridine-5-carboxylic acid]
4.1	1.3	N#Cc1ccc(COc2cccc(-c3ccn(Cc4nc5ccc(C(=O)O)nc5n4C[C@@H]4CCO4)c(=O)c3)n2)c(F)c1 [Compound 106aw, (S)-2-((6-((4-cyano-2-fluorobenzyl)oxy)-2′-oxo-[2,4′-bipyridin] -1′(2′H)-yl)methyl)-3-(oxetan-2-ylmethyl)-3H-imidazo[4,5-b]pyridine-5-carboxylic acid]
0.12		O=C(O)c1ccc2nc(CC3CC=C(c4ncc(F)c(OCc5ccc(Cl)cn5)n4)CC3)n(C[C@@H]3CCO3)c2n1 (stereo partly drawn) [Compound 120a, 2-((4-(4-((5-chloropyridin-2-yl)methoxy)-5-fluoropyrimidin-2-yl)cyclohex-3-en-1-yl)methyl)-3-(((S)-oxetan-2-yl)methyl)-3H-imidazo[4,5-b]pyridine-5-carboxylic acid]
0.027		O=C(O)c1ccc2nc(CC3CC=C(c4cccc(OCc5ccc(Cl)cn5)n4)CC3)n(C[C@@H]3CCO3)c2n1 (stereo partly drawn) [Compound 121a, 2-((4-(6-((5-chloropyridin-2-yl)methoxy)pyridin-2-yl)cyclohex-3-en-1-yl)methyl)-3-(((S)-oxetan-2-yl)methyl)-3H-imidazo[4,5-b]pyridine-5-carboxylic acid]

The remaining lines, values behind:

SMILES	EC50 (GLP-1 Receptor [1]) [nM]	EC50 (GLP-1 Receptor [2]) [nM]
N#Cc1ccc(COc2cccc(C3=CCC(Cc4nc5ccc(C(=O)O)nc5n4C[C@@H]4CCO4)CC3)n2)c(F)c1 (stereo partly drawn) [Compound 101a, 2-((4-(6-((4-cyano-2-fluorobenzyl)oxy)pyridin-2-yl)cyclohex-3-en-1-yl)methyl)-3-(((S)-oxetan-2-yl)methyl)-3H-imidazo[4,5-b]pyridine-5-carboxylic acid]	0.019	< 0.051
O=C(O)c1ccc2nc(Cc3ccc(-c4nccc(OCc5ccc(Cl)cc5F)n4)cc3)n(C[C@@H]3CCO3)c2n1 [Compound 101aw, (S)-2-(4-(4-((4-chloro-2-fluorobenzyl)oxy)pyrimidin-2-yl)benzyl)-3-(oxetan-2-ylmethyl)-3H-imidazo[4,5-b]pyridine-5-carboxylic acid]	0.097	0.069
O=C(O)c1ccc2nc(CC3CC=C(c4cccc(OCc5ccc(Cl)cc5F)n4)CC3)n(C[C@@H]3CCO3)c2n1 (stereo partly drawn) [Compound 102a, 2-((4-(6-((4-chloro-2-fluorobenzyl)oxy)pyridin-2-yl)cyclohex-3-en-1-yl)methyl)-3-(((S)-oxetan-2-yl)methyl)-3H-imidazo[4,5-b]pyridine-5-carboxylic acid]	0.0096	0.016
O=C(O)c1ccc2nc(Cc3ccc(-c4nccc(OCc5ccccc5)n4)cc3)n(C[C@@H]3CCO3)c2n1 [Compound 102aw, 2-[[4-(4-benzyloxypyrimidin-2-yl)phenyl]methyl]-3-[[(2S)-oxetan-2-yl]methyl]imidazo[4,5-b]pyridine-5-carboxylic acid]	1.9	2.2
O=C(O)c1ccc2nc(CC3CC=C(c4nccc(OCc5ccc(Cl)cc5F)n4)CC3)n(C[C@@H]3CCO3)c2n1 (stereo partly drawn) [Compound 103a, 2-((4-(4-((4-chloro-2-fluorobenzyl)oxy)pyrimidin-2-yl)cyclohex-3-en-1-yl)methyl)-3-(((S)-oxetan-2-yl)methyl)-3H-imidazo[4,5-b]pyridine-5-carboxylic acid]	0.095	0.073
O=C(O)c1ccc2nc(Cn3ccc(-c4cccc(OCc5ccc(Cl)cc5F)n4)cc3=O)n(C[C@@H]3CCO3)c2n1 [Compound 103aw, (S)-2-((6-((4-chloro-2-fluorobenzyl)oxy)-2′-oxo-[2,4′-bipyridin]-1′(2′H)-yl)methyl)-3-(oxetan-2-ylmethyl)-3H-imidazo[4,5-b]pyridine-5-carboxylic acid]	0.89	0.38
O=C(O)c1ccc2nc(CC3CC=C(c4ccnc(OCc5ccc(Cl)cc5F)n4)CC3)n(C[C@@H]3CCO3)c2n1 (stereo partly drawn) [Compound 104a, 2-((4-(2-((4-chloro-2-fluorobenzyl)oxy)pyrimidin-4-yl)cyclohex-3-en-1-yl)methyl)-3-(((S)-oxetan-2-yl)methyl)-3H-imidazo[4,5-b]pyridine-5-carboxylic acid]	0.12	0.114
Cc1cn(Cc2nc3ccc(C(=O)O)nc3n2C[C@@H]2CCO2)c(=O)cc1-c1cccc(OCc2ccc(Cl)cc2F)n1 [Compound 104aw, (S)-2-((6-((4-chloro-2-fluorobenzyl)oxy)-5′-methyl-2′-oxo-[2,4′-bipyridin]-1′(2′H)-yl)methyl)-3-(oxetan-2-ylmethyl)-3H-imidazo[4,5-b]pyridine-5-carboxylic acid]	0.13	0.17
N#Cc1ccc(COc2nc(C3=CCC(Cc4nc5ccc(C(=O)O)nc5n4CC4CC4)CC3)ncc2F)c(F)c1 (stereo not shown) [Compound 122, 2-((4-(4-((4-cyano-2-fluorobenzyl)oxy)-5-fluoropyrimidin-2-yl)cyclohex-3-en-1-yl)methyl)-3-(cyclopropylmethyl)-3H-imidazo[4,5-b]pyridine-5-carboxylic acid]	0.43	
N#Cc1ccc(COc2nc(C3=CCC(Cc4nc5ccc(C(=O)O)nc5n4CC4(C#N)CC4)CC3)ncc2F)c(F)c1 (stereo not shown) [Compound 123, 2-((4-(4-((4-cyano-2-fluorobenzyl)oxy)-5-fluoropyrimidin-2-yl)cyclohex-3-en-1-yl)methyl)-3-((1-cyanocyclopropyl)methyl)-3H-imidazo[4,5-b]pyridine-5-carboxylic acid]	0.067	
CC(C)(C#N)Cn1c(CC2CC=C(c3ncc(F)c(OCc4ccc(C#N)cc4F)n3)CC2)nc2ccc(C(=O)O)nc21 (stereo not shown) [Compound 124, 2-((4-(4-((4-cyano-2-fluorobenzyl)oxy)-5-fluoropyrimidin-2-yl)cyclohex-3-en-1-yl)methyl)-3-(2-cyano-2-methylpropyl)-3H-imidazo[4,5-b]pyridine-5-carboxylic acid]	0.39	
N#CC1(Cn2c(CC3CC=C(c4ncc(F)c(OCc5ccc(Cl)cc5F)n4)CC3)nc3ccc(C(=O)O)nc32)CC1 (stereo not shown) [Compound 125, 2-((4-(4-((4-chloro-2-fluorobenzyl)oxy)-5-fluoropyrimidin-2-yl)cyclohex-3-en-1-yl)methyl)-3-((1-cyanocyclopropyl)methyl)-3H-imidazo[4,5-b]pyridine-5-carboxylic acid]	0.045	
CC(C)(C#N)Cn1c(CC2CC=C(c3ncc(F)c(OCc4ccc(Cl)cc4F)n3)CC2)nc2ccc(C(=O)O)nc21 (stereo not shown) [Compound 126, 2-((4-(4-((4-chloro-2-fluorobenzyl)oxy)-5-fluoropyrimidin-2-yl)cyclohex-3-en-1-yl)methyl)-3-(2-cyano-2-methylpropyl)-3H-imidazo[4,5-b]pyridine-5-carboxylic acid]	0.37	
COCCn1c(CC2CC=C(c3ncc(F)c(OCc4ccc(Cl)cc4F)n3)CC2)nc2ccc(C(=O)O)nc21 (stereo not shown) [Compound 127]	0.83	
CC#CCn1c(CC2CC=C(c3cccc(OCc4ccc(Cl)cc4F)n3)CC2)nc2ccc(C(=O)O)nc21 (stereo not shown) [Compound 128, 3-(but-2-yn-1-yl)-2-((4-(6-((4-chloro-2-fluorobenzyl)oxy)pyridin-2-yl)cyclohex-3-en-1-yl)methyl)-3H-imidazo[4,5-b]pyridine-5-carboxylic acid]	59	

— patent US20230165846A1, “HETEROCYCLIC GLP-1 AGONISTS” (Gasherbrum Bio, Inc., priority 2020, published 2023)
